Results: patent US20080081333A1, “METHYLATED PROMOTERS AS BIOMARKERS OF COLON CANCER” (UNIVERSITY OF MARYLAND, BALTIMORE, priority 2006, published 2008)
“Also recorded” adds a separate entry of the source.

Columns and labels:
[1] = system: KYSE220; assay: 5-Aza-dC treatment of esophageal cancer cell line, qMSP and qRT-PCR; type: cell-based; details: 1 μl of 5 mM 5-Aza-dC per ml of cells every 24 hours for 6 days
Protocol: (§1) Samples and cell lines were treated as in Example 1. Briefly, extracted DNA was treated with bisulfite to convert unmethylated cytosines to uracils prior to MSP. Promoter methylation levels of TAC1 were determined using qMSP with the ABI 7700 Sequence Detection (Taqman) System, using primers and probes described. A normalized methylation value (NMV), reflecting the percentage of DNA methylated for the gene of interest (GoI), was defined as follows: NMV=(GoI-S/GoI-FM)/(ACTB-S/ACTB-FM), where GoI-S and GoI-FM represent GoI methylation levels in the sample and fully methylated DNAs, respectively, while ACTB-S and ACTB-FM correspond to β-Actin in the sample and fully methylated DNAs, respectively.
(§2) To determine TAC1 mRNA levels, one-step real-time quantitative RT-PCR was performed using a Qiagen QuantiTect Probe RT-PCR Kit (Qiagen, Hilden, Germany) and the ABI 7700 Sequence Detection (Taqman) System. Primers and probes are described herein. β-Actin was used to normalize data. A standard curve was generated using serial dilutions of qPCR Reference Total RNA (Clontech, Mountainview, Calif.). The normalized mRNA value (NRV) was calculated according to the following formula for relative expression of target mRNA: Expression index=(TarS/TarC)/(ACTB-S/ACTB-C, where TarS and TarC represent levels of mRNA expression for the target gene in the sample and control mRNAs, respectively, whereas ACTB-S and ACTB-C correspond to amplified ACTB levels in the sample and control mRNAs, respectively.
as §2, with “SST” for “TAC1”, “were the same as previously reported. 12” for “are described herein.”, “for normalization of” for “to normalize”, “NRV=(TarS/TarC)/(ACTB-S/ACTB-C),” for “Expression index=(TarS/TarC)/(ACTB-S/ACTB-C,”, “in” for “in the”
To determine whether TAC1 inactivation was due to promoter hypermethylation in esophageal cancer, 2 esophageal cancer cell lines (KYSE220 and BIC) were subjected to 5-Aza-dC (Sigma, St. Louis, Mo.) treatment. Briefly, 1×10^5 cells/ml were seeded onto a 100 mm dish and grown for 24 h. Then, 1 μl of 5 mM 5-Aza-dC per ml of cells was added every 24 hours for 6 days. DNAs and RNAs were harvested on day 6. […]

[2] = system: HT29 and HCT116; assay: cDNA microarray of colon cancer cell lines treated with 5-aza-dC versus untreated cells; type: cell-based, human; details: in at least one of HT29, HCT116; 10 μM 84 hours or 1 μM 24 hours then 60 hours drug-free; log ratio greater than 0.75 (1.65-fold)
Protocol: (§3) Next, a cDNA microarray analysis of two colon cancer cell lines was performed, comparing cells treated with 5-aza-dC and untreated cells. Briefly, the colon cancer cell lines HT29 and HCT116 were seeded at a density of 4×10^5 cells per 75 cm^2 culture flask and incubated for 24 hours in growth media. The cells were then treated with 5-aza-dC in either one of the following conditions: a) 10 μM 5-aza-dC for 84 hours or b) 1 μM 5-aza-dC for 24 hours followed by 60 hours of 5-aza-dC-free growth. These two 5-aza-dC treatment regimens were employed to obtain expression data under diverse cellular conditions: the former regimen focused on maximum DNA demethylation, while the latter regimen focused on moderate DNA demethylation to minimize damage to cell viability. […] Genes with very low expression levels in post-treatment specimens were eliminated from further analyses. The cut-off criterion was defined as median signal intensity less than median background intensity plus 1 standard deviation.

[3] = system: HCT116; assay: quantitative MSP and real-time RT-PCR with and without 5-aza-dC treatment; type: cell-based, human; details: HCT116, after 5-aza-dC treatment
Protocol: as §3
(§4) Tumor samples were snap frozen on dry ice and stored at −80° C. After thawing, DNA was extracted from samples and treated with bisulfite prior to MSP. Briefly, DNA was extracted from all samples and treated with bisulfite to convert unmethylated cytosines to uracils prior to methylation-specific PCR (MSP) as described previously in Mori, Y., et al. Cancer Res. 64:2434-38 (2004), which is incorporated by reference. DNA methylation status and levels of the 4 candidate markers were determined with real-time quantitative MSP using the ABI 7900 HT Sequence Detection (Taqman) System, as described previously in Sato F., et al., Cancer Res. 62:6820-22 (2002), which is incorporated by reference. Primers and probes for quantitative MSP of (SHP-1, DcR1, RARβ, and DcR2) are disclosed in Takahashi, T. et al, Int'l J. Cancer, 118(4): 924-931 (2005), which is incorporated by reference.
(§5) DNA methylation status and levels of 5 genes were determined with real-time quantitative MSP using the ABI 7900 HT Sequence Detection (Taqman) System, as described previously in Sato F., et al., Cancer Res. 62:6820-22 (2002), which is incorporated by reference. Primers and probes for quantitative MSP of ENG, MAL, CAV1, TAC1, SST, NELL1 and AKAP12 are below in Tables III and IV.
(§6) A normalized methylation value (NMV) reflecting the percentage of DNA methylated for the gene of interest (GoI), was defined as follows: NMV=(GoI-S/GoI-FM)/(ACTB-S/ACTB-FM)*100, where GoI-S and GoI-FM represented GoI methylation levels in the Sample and Fully Methylated DNAs, respectively, while ACTB-S and ACTB-FM corresponds to β-Actin in the sample and Fully Methylated (FM) DNAs, respectively.
(§7) Increased SST and TAC1 methylation levels was also observed in cancers relative to matched normal colonic mucosae from the resection margins (FIG. 2). […] Furthermore, we examined the correlation between promoter methylation and mRNA expression levels of SST and TAC1. For this purpose, we analyzed colon cancer cell lines with and without 5-aza-dC treatment using quantitative real-time PCR. mRNA upregulation occurred for both SST and TAC1 after promoter DNA demethylation by 5-aza-dC treatment (FIG. 4).

[4] = system: HT29; assay: as above; type: cell-based, human; details: HT29, after 5-aza-dC treatment
Protocol: as §3, §4, §5, §6, §7

[5] = system: OE33; assay: 5-Aza-dC treatment of esophageal cancer cell line, qMSP and qRT-PCR; type: cell-based
Protocol: as §1
as §2, with “SST” for “TAC1”, “were the same as previously reported. 12” for “are described herein.”, “for normalization of” for “to normalize”, “NRV=(TarS/TarC)/(ACTB-S/ACTB-C),” for “Expression index=(TarS/TarC)/(ACTB-S/ACTB-C,”, “in” for “in the”
To determine whether SST inactivation was due to promoter hypermethylation in esophageal cancer, 2 esophageal cancer cell lines (KYSE220 and OE33) were subjected to 5-Aza-dC (Sigma, St. Louis, Mo.) treatment. Briefly, 1×10^5 cells/ml were seeded onto a 100 mm dish and grown for 24 h. Then, 1 μl of 5 mM 5-Aza-dC per ml of cells was added every 24 hours for 6 days. DNA and RNA were harvested on day 6.
(§8) Samples were treated as in Examples 1 and 2. Briefly, to determine AKAP12 mRNA levels, one-step real-time quantitative RT-PCR was performed using a Qiagen QuantiTect Probe RT-PCR Kit (Qiagen, Hilden, Germany) and the ABI 7700 Sequence Detection System (Applied Biosystems, Foster City, Calif.). Primers and probe for AKAP12 were as follows: […]
(§9) β-actin was used for normalization of data. Primers and probe for β-actin were the same as previously reported. […] Normalized mRNA value (NRV) was calculated according to the following formula for relative expression of target mRNA: NRV=(TarS/TarC)/(ACTB-S/A CTB-C, where TarS and TarC represent levels of mRNA expression for the target gene in sample and control mRNAs, respectively, while ACTB-S and ACTB-C correspond to amplified ACTB levels in sample and control mRNAs, respectively.

[6] = system: BIC; assay: as above; type: cell-based
Protocol: as §1, §2
To determine whether TAC1 inactivation was due to promoter hypermethylation in esophageal cancer, 2 esophageal cancer cell lines (KYSE220 and BIC) were subjected to 5-Aza-dC (Sigma, St. Louis, Mo.) treatment. Briefly, 1×10^5 cells/ml were seeded onto a 100 mm dish and grown for 24 h. Then, 1 μl of 5 mM 5-Aza-dC per ml of cells was added every 24 hours for 6 days. DNAs and RNAs were harvested on day 6.
as §8, §9

[7] = system: HCT116 and HT29; assay: quantitative MSP and real-time RT-PCR with and without 5-aza-dC treatment, five further genes; type: cell-based, human; details: all five genes, in a colon cancer cell line, after 5-aza-dC treatment
Protocol: Next, a cDNA microarray analysis of two colon cancer cell lines was performed, comparing cells treated with 5-aza-dC and untreated cells. Briefly, the colon cancer cell lines HT29 and HCT116 were seeded at a density of 4×10^5 cells per 75 cm^2 culture flask and incubated for 24 hours in growth media. The cells were then treated with 5-aza-dC in either one of the following conditions: a) 10 μM 5-aza-dC for 84 hours or b) 1 μM 5-aza-dC for 24 hours followed by 60 hours of 5-aza-dC-free growth. […]
Tumor samples were snap frozen on dry ice and stored at −80° C. […] DNA methylation status and levels of the 4 candidate markers were determined with real-time quantitative MSP using the ABI 7900 HT Sequence Detection (Taqman) System, as described previously in Sato F., et al., Cancer Res. 62:6820-22 (2002), which is incorporated by reference. Primers and probes for quantitative MSP of (SHP-1, DcR1, RARβ, and DcR2) are disclosed in Takahashi, T. et al, Int'l J. Cancer, 118(4): 924-931 (2005), which is incorporated by reference.
as §5, with “IV. […]” for “IV.”

[8] = OE33, 1 μl of 5 mM 5-Aza-dC per ml of cells every 24 hours for 6 days
[9] = 1 μl of 5 mM 5-Aza-dC per ml of cells every 24 hours for 6 days

How did the “NMV of SST” value [1] turn out when `Nc1ncn([C@H]2C[C@H](O)[C@@H](CO)O2)c(=O)n1` [5-aza-dC] was run?
Its value is “diminished”.

What about the “NMV of TAC1” value [1] of the same compound?
The value was “diminished”.

What about the “mRNA level (NRV) of SST” value [1] of the same compound?
Its value is “increased”.

And the “mRNA level (NRV) of TAC1” value [1]?
The value was “increased”.

What about the “genes upregulated after 5-aza-dC treatment” value [2] of the same compound?
The value was 861 genes.

And the “SST mRNA expression index (EI)” value [3]?
Its value is “upregulation”.

What about the “SST promoter methylation index (MI)” value [3] of the same compound?
Its value is “demethylation; also recorded: decreased”.

What about the “TAC1 mRNA expression index (EI)” value [3] of the same compound?
Its value is “upregulation”.

And the “TAC1 promoter methylation index (MI)” value [3]?
The value was “demethylation; also recorded: decreased”.

What about the “SST mRNA expression index (EI)” value [4] of the same compound?
The value was “upregulation”.

And the “SST promoter methylation index (MI)” value [4]?
The value was “demethylation; also recorded: decreased”.

And the “TAC1 mRNA expression index (EI)” value [4]?
Its value is “upregulation”.

And the “TAC1 promoter methylation index (MI)” value [4]?
Its value is “demethylation; also recorded: decreased”.

And the “NMV of AKAP12” value ([5]; OE33, after 5-Aza-dC treatment)?
Its value is “diminished”.

What about the “mRNA level (NRV) of AKAP12” value ([5]; OE33, after 5-Aza-dC treatment) of the same compound?
The value was “increased”.

What about the “NMV of SST” value [5, 8] of the same compound?
Its value is “diminished”.

What about the “mRNA level (NRV) of SST” value [5, 8] of the same compound?
Its value is “increased”.

What about the “NMV of TAC1” value [6, 9] of the same compound?
The value was “diminished”.

And the “mRNA level (NRV) of TAC1” value [6, 9]?
The value was “increased”.

And the “NMV of AKAP12” value ([6]; after 5-Aza-dC treatment)?
Its value is “diminished”.

What about the “mRNA level (NRV) of AKAP12” value ([6]; after 5-Aza-dC treatment) of the same compound?
The value was “increased”.

What about the “mRNA of NELL1, CAV1, AKAP12, ENG and MAL” value [7] of the same compound?
The value was “increased; also recorded: upregulation”.

And the “promoter region DNA methylation of NELL1, CAV1, AKAP12, ENG and MAL” value [7]?
The value was “demethylation; also recorded: decreased”.
